For one data set, the target named is T1, ALK4 (Homo sapiens, UniProt P36896).
T1 sequence (P36896 24-505): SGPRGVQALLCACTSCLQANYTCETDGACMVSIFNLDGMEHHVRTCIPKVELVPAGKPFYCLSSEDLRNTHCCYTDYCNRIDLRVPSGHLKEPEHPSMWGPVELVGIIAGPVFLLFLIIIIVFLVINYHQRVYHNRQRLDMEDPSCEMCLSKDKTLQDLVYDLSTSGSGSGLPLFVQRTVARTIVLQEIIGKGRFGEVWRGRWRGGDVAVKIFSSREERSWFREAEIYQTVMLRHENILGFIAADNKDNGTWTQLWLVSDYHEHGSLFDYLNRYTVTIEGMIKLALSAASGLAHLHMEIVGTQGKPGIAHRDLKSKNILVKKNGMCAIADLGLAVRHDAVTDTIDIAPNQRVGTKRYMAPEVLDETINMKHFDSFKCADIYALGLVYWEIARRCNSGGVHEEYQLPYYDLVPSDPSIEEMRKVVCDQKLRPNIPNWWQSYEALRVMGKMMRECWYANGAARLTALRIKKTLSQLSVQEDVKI
Briefly: Kinase assay (33P-ATP filter-binding), ALK4. The class given is biochemical. To be noted: read-out: Kinase Selectivity ALK4. As for the experimental part: (§1) The kinase assays were carried out briefly as follows. Substrate was prepared in Base Reaction Buffer (20 mM Hepes (pH 7.5), 10 mM MgCl2, 1 mM EGTA, 0.02% Brij35, 0.02 mg/ml BSA, 0.1 mM Na3VO4, 2 mM DTT, 1% DMSO). The indicated kinases was delivered into the substrate solution and allowed to gently mix. Next, the specific compound was delivered in DMSO into the kinase mixture by Acoustic technology (Echo550; nanoliter range), and allowed to incubate for 20 minutes at room temperature. Next, ^33P-ATP was delivered into the reaction mixture to initiate the reaction and allowed to incubate at room temperature. After 2 hours, the reactions were spotted onto P81 ion exchange paper and the kinase activity is detected by the filter-binding method.

The target of the next data set is T2, ALK2/ACVR1 (Homo sapiens, UniProt Q04771).
T2 sequence (Q04771 21-509): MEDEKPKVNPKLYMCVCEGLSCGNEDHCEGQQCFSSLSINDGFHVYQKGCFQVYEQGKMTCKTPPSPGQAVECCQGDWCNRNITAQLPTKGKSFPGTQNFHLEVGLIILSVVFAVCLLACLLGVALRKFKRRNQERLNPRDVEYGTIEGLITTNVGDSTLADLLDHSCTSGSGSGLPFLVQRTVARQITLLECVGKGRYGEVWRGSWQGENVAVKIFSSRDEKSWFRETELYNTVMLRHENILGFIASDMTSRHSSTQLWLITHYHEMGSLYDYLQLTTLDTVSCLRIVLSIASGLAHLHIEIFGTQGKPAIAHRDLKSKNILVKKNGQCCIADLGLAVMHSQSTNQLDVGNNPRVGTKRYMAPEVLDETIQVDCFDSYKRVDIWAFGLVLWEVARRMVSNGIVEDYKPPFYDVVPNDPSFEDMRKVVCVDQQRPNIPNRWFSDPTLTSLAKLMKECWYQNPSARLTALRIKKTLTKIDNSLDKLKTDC
Briefly: Kinase assay (33P-ATP filter-binding), ALK2. The class given is biochemical. The following applies: 20 mM; read-out: Kinase Selectivity ALK2/ACVR1 (20 mM). Put shortly:
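After 20 minutes of compound–kinase–substrate preincubation at room temperature in Hepes pH 7.5 buffer (MgCl2, EGTA, Brij35, BSA, vanadate, DTT, 1% DMSO), 33P-ATP was added. Reactions ran 2 hours at room temperature before spotting on P81 ion exchange paper for filter-binding detection.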

A further data set addresses PDGFRb (Homo sapiens, UniProt P09619). Briefly: Kinase assay (33P-ATP filter-binding), PDGFRb. The following applies: read-out: Kinase Selectivity PDGFRb. It is filed as biochemical. As for the experimental part:
as §1

In a further data set the target is T3, BMPR2 (Homo sapiens, UniProt Q13873).
T3 sequence (Q13873 27-1038): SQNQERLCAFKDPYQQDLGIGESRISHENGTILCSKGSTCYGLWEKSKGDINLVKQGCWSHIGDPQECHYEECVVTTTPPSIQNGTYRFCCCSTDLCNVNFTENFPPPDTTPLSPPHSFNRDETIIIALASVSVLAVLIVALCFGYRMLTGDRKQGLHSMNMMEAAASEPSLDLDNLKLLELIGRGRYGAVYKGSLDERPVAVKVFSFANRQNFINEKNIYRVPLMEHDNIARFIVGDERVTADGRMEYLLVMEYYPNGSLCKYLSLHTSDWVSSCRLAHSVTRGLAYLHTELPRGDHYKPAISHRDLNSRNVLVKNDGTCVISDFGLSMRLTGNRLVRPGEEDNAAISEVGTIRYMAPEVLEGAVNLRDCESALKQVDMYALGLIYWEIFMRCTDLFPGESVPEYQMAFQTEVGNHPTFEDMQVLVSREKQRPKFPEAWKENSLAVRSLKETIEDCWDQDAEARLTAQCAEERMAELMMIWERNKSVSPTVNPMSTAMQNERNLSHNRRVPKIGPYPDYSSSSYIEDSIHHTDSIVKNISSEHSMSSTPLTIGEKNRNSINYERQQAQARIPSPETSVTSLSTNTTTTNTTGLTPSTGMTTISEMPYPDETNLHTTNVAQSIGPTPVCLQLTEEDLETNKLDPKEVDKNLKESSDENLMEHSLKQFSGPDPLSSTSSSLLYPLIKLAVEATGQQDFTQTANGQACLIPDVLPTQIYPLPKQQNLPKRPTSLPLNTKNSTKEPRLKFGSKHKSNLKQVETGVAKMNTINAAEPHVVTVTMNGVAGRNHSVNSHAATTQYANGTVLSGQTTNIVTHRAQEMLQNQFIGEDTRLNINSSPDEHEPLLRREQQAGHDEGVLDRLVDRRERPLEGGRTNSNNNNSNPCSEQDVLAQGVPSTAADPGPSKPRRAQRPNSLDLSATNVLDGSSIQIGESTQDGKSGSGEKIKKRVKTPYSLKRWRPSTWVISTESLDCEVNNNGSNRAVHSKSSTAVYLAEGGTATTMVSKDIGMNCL
The data set is described as follows: Kinase assay (33P-ATP filter-binding), BMPR2. It is filed as biochemical. To be noted: read-out: Kinase Selectivity BMPR2. The protocol:
as §1

The next data set can be described thus: Protein binding, mouse. It is filed as in vitro ADME.

PDGFRb, sequence (P09619 33-1106, species assumed): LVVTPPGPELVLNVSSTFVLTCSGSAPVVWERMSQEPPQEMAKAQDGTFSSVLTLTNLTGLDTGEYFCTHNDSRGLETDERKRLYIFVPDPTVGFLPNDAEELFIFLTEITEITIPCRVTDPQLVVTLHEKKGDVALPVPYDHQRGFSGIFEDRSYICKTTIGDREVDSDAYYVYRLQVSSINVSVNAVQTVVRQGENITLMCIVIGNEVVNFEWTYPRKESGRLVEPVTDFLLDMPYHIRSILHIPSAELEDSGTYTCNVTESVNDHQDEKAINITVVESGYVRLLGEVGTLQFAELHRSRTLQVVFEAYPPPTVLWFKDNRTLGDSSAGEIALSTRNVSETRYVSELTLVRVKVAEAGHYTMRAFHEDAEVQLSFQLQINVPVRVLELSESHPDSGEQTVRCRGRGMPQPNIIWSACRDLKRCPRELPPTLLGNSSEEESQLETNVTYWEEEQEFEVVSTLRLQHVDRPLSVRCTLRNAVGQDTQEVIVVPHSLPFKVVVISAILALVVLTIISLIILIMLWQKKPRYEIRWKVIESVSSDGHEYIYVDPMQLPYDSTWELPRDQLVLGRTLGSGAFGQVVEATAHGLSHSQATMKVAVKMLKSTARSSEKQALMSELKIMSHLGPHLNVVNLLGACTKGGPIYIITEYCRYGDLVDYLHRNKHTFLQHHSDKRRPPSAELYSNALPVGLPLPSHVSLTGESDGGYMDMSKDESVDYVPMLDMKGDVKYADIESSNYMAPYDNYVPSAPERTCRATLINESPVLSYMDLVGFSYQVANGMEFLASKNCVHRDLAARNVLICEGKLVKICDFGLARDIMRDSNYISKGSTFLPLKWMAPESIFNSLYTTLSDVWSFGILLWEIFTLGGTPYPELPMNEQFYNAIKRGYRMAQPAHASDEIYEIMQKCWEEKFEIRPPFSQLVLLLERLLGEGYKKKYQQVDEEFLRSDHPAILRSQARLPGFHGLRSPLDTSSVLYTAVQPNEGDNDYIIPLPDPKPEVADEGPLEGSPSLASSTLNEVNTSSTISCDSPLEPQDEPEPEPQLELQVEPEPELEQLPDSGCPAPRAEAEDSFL

For the compound `NS(=O)(=O)c1ccc(-c2cnc3cc(-c4ccc(C5CNCCN5)cc4)ccn23)c2ccccc12` (stereo not drawn) [Compound 37], the IC50 on ALK4 is 386 nM; on ALK2/ACVR1, 14.6 nM; at PDGFRb it was 6490 nM; at BMPR2 it was greater than 100000 nM.
Turning to `c1cc(-c2cnc3cc(-c4ccc(C5CNCCN5)cc4)ccn23)c2cccnc2c1` (stereo not drawn) [Compound 33], the IC50 was 775 nM on ALK4, less than 5.1 nM on ALK2/ACVR1, 7700 nM on PDGFRb and greater than 100000 nM at BMPR2. Besides, the “Protein Binding (% Free) Mouse” value in the data set “Protein binding, mouse” came out at 8.4 % Free.
For `c1cnc2nccc(-c3cnc4cc(-c5ccc(C6CNCCN6)cc5)ccn34)c2c1` (stereo not drawn) [Compound 32] the same measures were 192 nM, 16.5 nM, 2820 nM, 54400 nM and 33.9 % Free.
Regarding `Cc1cc(-c2cnc3cc(-c4ccc(C5COC6(CCNC6)CN5)cc4)ccn23)c2cc(F)cc(F)c2n1` (stereo not drawn) [Compound 27], the IC50 at ALK4 is 2030 nM; on ALK2/ACVR1, 29.1 nM; on PDGFRb it was 21700 nM; at BMPR2 it was greater than 100000 nM. Moreover, in the data set “Protein binding, mouse”, the “Protein Binding (% Free) Mouse” value was determined as 3.9 % Free.
`O=C1CNC(=O)C(c2ccc(-c3ccn4c(-c5cccc6ncccc56)cnc4c3)cc2)N1` (stereo not drawn) [Compound 36]: the IC50 at ALK4 was 390 nM; at ALK2/ACVR1, less than 5.1 nM; at PDGFRb it was 6930 nM; on BMPR2, greater than 100000 nM.
With `Cc1cc(-c2cnc3cc(-c4ccc(C5COCC(C)N5)cc4)ccn23)c2cc(F)cc(F)c2n1` (stereo not drawn) [Compound 23], the IC50 at ALK4 was 164 nM; at ALK2/ACVR1 it was less than 5.1 nM; on PDGFRb, 7340 nM; at BMPR2, greater than 100000 nM. Moreover, the “Protein Binding (% Free) Mouse” value in the data set “Protein binding, mouse” is 2.85 % Free.
For `Cc1cc(-c2cnc3cc(-c4ccc(C5COC6(CCNCC6)CN5)cc4)ccn23)c2cc(F)cc(F)c2n1` (stereo not drawn) [Compound 16] the same measures were 775 nM, less than 5.1 nM, 7700 nM, greater than 100000 nM and 4.7 % Free.

These data come from patent US10745400B2, “Inhibition of BMP signaling, compounds, compositions and uses thereof” (Vanderbilt University, priority 2018, dated 2020).
